The record followed here is patent US5086054A, “Novel arylcycloalkanepolyalkylamines” (SRI International, priority 1990, dated 1992).

The structures appear in SMILES notation. Entries after “also recorded” stand apart in the source; their conditions may differ. Like-named read-outs stand apart in the source and are kept apart here.

For one assay, the target named is PCP RECEPTOR
Nature of the assay: PCP receptor binding assay ([3H]-TCP displacement, brain membranes). Set-up: species or system guinea-pig (male Hartley). To be noted: for IC50: read-out: PCP RECEPTOR IC50. The protocol: (§1) This example illustrates testing of compounds in receptor binding assays.
(§2) Frozen brains from male Hartley guinea-pigs were obtained from Pel-Freeze (Rogers, Arkansas).
(§3) The brains plus cerebella were homogenized in 10 volumes (v/w) of 0.1M, pH 7.4, ice-cold Tris-HCl buffer with a Brinkmann polytron at setting 4 for 20 seconds. The homogenates were centrifuged at 20,000×g for 20 minutes at 4° C. The pellets were suspended in 10 volumes of ice-cold water and, after sitting on ice for 10 minutes, were centrifuged 30 minutes at 20,000×g at 4° C. The resulting pellets were resuspended in the above Tris buffer in ratio 1:100 (w/v) for σ receptor assays or in 5 mM Tris-HCl having pH 7.4, for PCP receptor assays. The final suspension was homogenized with a dounce glass-glass tissue grinder Wheaton "200", at small clearance (B), with three strokes before use. Two milliter aliquots of the brain membrane preparation, containing 1.7 mg of protein, were incubated in quadruplicate for one hour at 23° C. with competing mixture of ligand and radioligand. For σ receptors, [^3 H]-d-SKF-10,047, 2 nM was used. For PCP receptors, [^3 H] TCP [^3 H]-1-[1-(2-thienyl)cyclohexyl]piperidine), 1 nM was used. The nonspecific bindings were defined by 0.1 mM d-SKF-10,047 and 0.1 mM phencyclidine respectively for σ and PCP receptors. After incubation, free ligand was separated from bound ligand by rapid filtration through Whatman GF/C filters. The filters had been soaked before use in isoamyl alcohol-saturated water to prevent nonspecific [^3 H]-d-SKF-10,047 binding to the filter. In the PCP receptor assay, the filter was soaked in 0.5% polyethylenimine to reduce the filter binding of [^3 H]-TCP. After filtration, the trapped tissue was washed three times with 4 ml aliquots of 0.1 M ice-cold Tris buffer at pH 7.4 for σ receptors and 5 mM, ice-cold Tris buffer pH 7.4 for PCP receptors. The filters were transferred to 5 ml of liquid scintillation fluid and the retained radioactivity was measured by liquid scintillation spectrometry.
Programs in Biomed. 17:107 (1983)].

A further assay addresses T1, SIGMA RECEPTOR (Cavia porcellus, UniProt Q60492).
T1 construct: Two milliter aliquots of the brain membrane preparation, containing 1.7 mg of protein; tissue Pel-Freeze (Rogers, Arkansas); host or cells: guinea-pig brains plus cerebella, membranes
Nature of the assay: Sigma receptor binding assay ([3H]-d-SKF-10,047 displacement, brain membranes). Set-up: species or system guinea-pig (male Hartley). The protocol: as §1, §2, §3

Where [1] appears, read: Table 2, aryl ring substituents.
The mark [2] stands for this setting: Table 2, aryl ring substituents, read-out: SIGMA RECEPTOR IC50.
Where [3] appears, read: Table 1, mean ± error (n), read-out: SIGMA RECEPTOR IC50.
[4] abbreviates: Table 1, slope of dose response curve.
The mark [5] stands for this setting: SIGMA RECEPTOR IC50, Table 1, mean ± error (n).

T1 sequence (Q60492 whole entry): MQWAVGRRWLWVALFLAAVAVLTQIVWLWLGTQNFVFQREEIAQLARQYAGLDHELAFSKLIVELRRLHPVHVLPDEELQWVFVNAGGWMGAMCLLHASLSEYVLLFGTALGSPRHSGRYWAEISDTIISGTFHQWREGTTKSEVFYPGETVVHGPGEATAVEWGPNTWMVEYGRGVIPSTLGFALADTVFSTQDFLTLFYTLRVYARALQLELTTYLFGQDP

`Oc1cccc(C2(CN3CCOCC3)CCCCC2)c1` [Compound 36]: the concentration for half-maximal inhibition (IC50) on PCP RECEPTOR (setting [1]) and on SIGMA RECEPTOR (setting [2]) was more than 25000 nM each time.
Regarding `Oc1ccc(C2(CN3CCCC3)CCCCC2)cc1` [Compound 30], in the assay with PCP RECEPTOR, the “potency at PCP receptors (in words)” value was “inactive at PCP receptor sites”. Besides, the IC50 on PCP RECEPTOR (setting [1]) was more than 25000 nM. Also, at SIGMA RECEPTOR, the “potency at σ receptors (in words)” value was “did not improve potency as much as the 3-hydroxy derivative” and the “selectivity for σ receptors (in words)” value is recorded as “considerably improved selectivity for σ receptors”. At SIGMA RECEPTOR (Table 2), the “SIGMA RECEPTOR SLOPE” value came out at 0.78 ± 0.02. On SIGMA RECEPTOR (setting [2]), the IC50 is 1740 nM.
`C[N+]1(CCOC(=O)C2(c3ccccc3)CCCCC2)CCCC1` [Compound 9]: in the assay on PCP RECEPTOR, the “potency at PCP receptors (in words)” value was “inactive in the PCP assay; also recorded: did not increase potency for PCP receptors”. Moreover, the concentration for half-maximal inhibition (IC50) on PCP RECEPTOR (Table 1, mean ± error (n)) was more than 25000 nM; at SIGMA RECEPTOR (setting [3]), 242 nM. Moreover, the “potency at σ receptors (in words)” value at SIGMA RECEPTOR is given as “σ receptor potency increased; also recorded: effectively reversed the potency for σ receptors”. Moreover, the “SIGMA RECEPTOR SLOPE” value at SIGMA RECEPTOR (setting [4]) is given as 0.62 ± 0.18.
As for `c1ccc(C2(N3CCCC3)CCCCC2)cc1` [Compound 5, 1-(1-phenylcyclohexyl)pyrrolidine, reference compound], the IC50 on PCP RECEPTOR (Table 1, mean ± error (n)) is 110 ± 6 nM; at SIGMA RECEPTOR (setting [5]), 7730 nM. The “SIGMA RECEPTOR SLOPE” value at SIGMA RECEPTOR (setting [4]) is given as 0.83 ± 0.06.
With `CN(C)CC1(c2ccccc2)CCCCC1` [Compound 18], the “potency at PCP receptors (in words)” value in the assay on PCP RECEPTOR was “inactive in the PCP receptor assay”. The IC50 is more than 25000 nM at PCP RECEPTOR (Table 1, mean ± error (n)); more than 25000 nM at PCP RECEPTOR (setting [1]); 4130 nM on SIGMA RECEPTOR (setting [3]); 4130 nM on SIGMA RECEPTOR (setting [2]). In addition, at SIGMA RECEPTOR, the “potency at σ receptors (in words)” value is “increased potency for σ receptors”. Besides, the “SIGMA RECEPTOR SLOPE” value at SIGMA RECEPTOR (setting [4]) and on SIGMA RECEPTOR (Table 2) was 0.85 ± 0.07 throughout.
Turning to `COc1ccc(C2(CN3CCCC3)CCCCC2)cc1` [Compound 34], the “potency at PCP receptors (in words)” value with PCP RECEPTOR is “inactive at PCP sites”. Further, the IC50 at PCP RECEPTOR (setting [1]) was more than 25000 nM. Moreover, at SIGMA RECEPTOR, the “potency at σ receptors (in words)” value is “somewhat potent” and the “selectivity for σ receptors (in words)” value was “very selective for σ receptors”. Also, at SIGMA RECEPTOR (Table 2), the “SIGMA RECEPTOR SLOPE” value is on record as 0.80 ± 0.07. Further, the IC50 on SIGMA RECEPTOR (setting [2]) turned out to be 546 nM.
Turning to `O=[N+]([O-])c1ccc(C2(CN3CCCCC3)CCCCC2)cc1` [Compound 24], at PCP RECEPTOR (setting [1]), the IC50 is more than 25000 nM. For the same compound, at SIGMA RECEPTOR, the “potency at σ receptors (in words)” value is on record as “slightly lower σ receptor potencies” and the “selectivity for σ receptors (in words)” value is on record as “substantially increases selectivity for σ receptors”. Further, the “SIGMA RECEPTOR SLOPE” value at SIGMA RECEPTOR (Table 2) amounted to 0.47 ± 0.06. Further, at SIGMA RECEPTOR (setting [2]), the IC50 was 249 nM.
Turning to `c1ccc(C2(CN3CCCC3)CCCCC2)cc1` [Compound 6], the “potency at PCP receptors (in words)” value with PCP RECEPTOR was “already inactive at PCP receptors”. Besides, the IC50 was 1270 nM at PCP RECEPTOR (Table 1, mean ± error (n)); 4740 nM on SIGMA RECEPTOR (setting [3]); 4750 nM on SIGMA RECEPTOR (setting [2]). In addition, the “potency at σ receptors (in words)” value at SIGMA RECEPTOR is reported as “increased potency for σ receptors”. Also, the “SIGMA RECEPTOR SLOPE” value at SIGMA RECEPTOR (setting [4]) and on SIGMA RECEPTOR (Table 2) was 0.88 ± 0.07 in each case.
As to `c1ccc(C2(N3CCOCC3)CCCCC2)cc1` [Compound 10, 4-(1-phenylcyclohexyl)morpholine, reference compound], the concentration for half-maximal inhibition (IC50) was 633 ± 71 nM on PCP RECEPTOR (Table 1, mean ± error (n)) and 2530 nM at SIGMA RECEPTOR (setting [5]). Also, the “SIGMA RECEPTOR SLOPE” value at SIGMA RECEPTOR (setting [4]) is reported as 0.47 ± 0.02.
Consider `Cc1ccc(C2(CN3CCCCC3)CCCCC2)cc1` [Compound 23], for which the half-inhibitory concentration (IC50) on PCP RECEPTOR (setting [1]) is more than 25000 nM. On SIGMA RECEPTOR, the “potency at σ receptors (in words)” value is “slightly lower σ receptor potencies” and the “selectivity for σ receptors (in words)” value is “substantially increases selectivity for σ receptors”. In addition, the “SIGMA RECEPTOR SLOPE” value at SIGMA RECEPTOR (Table 2) came to 0.69 ± 0.01. For the same compound, the concentration for half-maximal inhibition (IC50) on SIGMA RECEPTOR (setting [2]) was 223 nM.
In the case of `CCN(CC)CC1(c2ccccc2)CCCCC1` [Compound 14], in the assay on PCP RECEPTOR, the “potency at PCP receptors (in words)” value is “inactive in the PCP receptor assay”. Also, the IC50 is more than 25000 nM at PCP RECEPTOR (Table 1, mean ± error (n)); more than 25000 nM on PCP RECEPTOR (setting [1]); 208 nM on SIGMA RECEPTOR (setting [3]). Also, the “potency at σ receptors (in words)” value on SIGMA RECEPTOR is reported as “increased potency for σ receptors”. Besides, the “SIGMA RECEPTOR SLOPE” value at SIGMA RECEPTOR (setting [4]) and at SIGMA RECEPTOR (Table 2) was 0.66 ± 0.17 each time.
As for `Oc1cccc(C2(CN3CCCC3)CCCCC2)c1` [Compound 29], on PCP RECEPTOR (setting [1]), the IC50 came out at 1320 nM. For the same compound, on SIGMA RECEPTOR, the “potency at σ receptors (in words)” value is given as “only slight effect on σ receptor potency” and the “selectivity for σ receptors (in words)” value is reported as “selectivity for σ receptors was poor”. In addition, the “SIGMA RECEPTOR SLOPE” value on SIGMA RECEPTOR (Table 2) is on record as 0.80 ± 0.07. In addition, the IC50 at SIGMA RECEPTOR (setting [2]) turned out to be 1080 nM.

For orientation: IC50 means the concentration at which inhibition is half-maximal.
